Reference: patent publication US10919902B2, “Hetero-halo inhibitors of histone deacetylase” (Alkermes, Inc., priority 2015, dated 2021)

Molecular target: recombinant human HDACs (Homo sapiens)
Test: HDAC enzymatic assay
Format: biochemical
Settings: 5 nM HDAC enzyme, 5 h pre-incubation, 17 h reaction at 25° C.; isoform not given; read-out: IC50
Description: All recombinant human HDACs were purchased from BPS Bioscience. The substrate, FAM-TSRHK(AC)KL-CONH, was synthesized at NanoSyn. Final assay reactions contained 100 mM HEPES (pH 7.5), 50 mM KCl, 0.1% BSA, 0.01% Triton X-100, 1% DMSO, 1 uM substrate and 5 nM HDAC enzyme. Enzyme and compounds were pre-incubated at 25° C. for 5 hours and reactions were initiated by addition of substrate. 10 uL reactions were incubated for 17 hours at 25° C. and terminated by the addition of 40 uL of buffer containing 100 mM HEPES (pH 7.5), 0.1% BSA, 0.01% Triton X-100 and 0.05% SDS. Substrate and product peptides present in each sample were separated electrophoretically using the LabChip 3000 capillary electrophoresis instrument. Change in the relative fluorescence intensity of the substrate and product peaks reflects enzyme activity. Reaction progress was determined as the product to sum ratio (PSR):P/(S+P), where P is the peak height of the product peptide and S is the peak height of the substrate peptide. Reactions were performed in duplicate at 12 concentrations, (3× serial dilutions starting at 30 uM). IC50 values were calculated using a 4 Parameter Logistic Model.

IC50 [nM] | Structure (SMILES)
> 5000 | Cn1cc(CN2CCCC3(CCN(C(=O)Nc4nn(-c5ccc(F)cc5)cc4N)C3)C2)cn1 (stereo not shown) [Compound 123]
> 5000 | COc1cccc(CN2CCCC3(CCN(C(=O)Nc4nn(-c5ccc(F)cc5)cc4N)C3)C2)c1 (stereo not shown) [Compound 124]
500 to 5000 | Nc1cn(-c2ccc(F)cc2)nc1NC(=O)N1CCN(C(=O)[C@@H]2C[C@H]2c2ccccc2)CC1 [Compound 125]
500 to 5000 | Cc1cnc(C(=O)Nc2nn(-c3ccccc3)cc2N)s1 [Compound 126]
500 to 5000 | Nc1ccc(-c2ccc(F)cc2)nc1NC(=O)N1CC2CC(N3CCC3)CC2C1 (stereo not shown) [Compound 143]
100 to 500 | Nc1ccc(-c2cccs2)nc1NC(=O)N1Cc2cc(CN3CCCC3)cnc2C1 [Compound 144]
100 to 500 | CN(C)Cc1cnc2c(c1)CN(C(=O)Nc1nc(-c3cccs3)ccc1N)C2 [Compound 145]
100 to 500 | CN(C)Cc1ccc(C2CN(C(=O)Nc3nc(-c4ccc(F)cc4)ccc3N)C2)cc1 [Compound 146]
100 to 500 | Nc1ccc(-c2ccc(F)cc2)nc1NC(=O)N1Cc2cnc(N3CCC3)cc2C1 [Compound 147]
100 to 500 | CN1CCC(c2cc3c(cn2)CN(C(=O)Nc2nc(-c4ccc(F)cc4)ccc2N)C3)CC1 [Compound 149]
100 to 500 | Nc1ccc(-c2ccc(F)cc2)nc1NC(=O)N1Cc2cnc(N3CCOCC3)cc2C1 [Compound 150]
100 to 500 | Cc1cc2c(cn1)CN(C(=O)Nc1nc(-c3ccc(F)cc3)ccc1N)C2 [Compound 151]
500 to 5000 | CN1CC(N2CC3CN(C(=O)Nc4nc(-c5ccc(F)cc5)ccc4N)CC3C2)C1 (stereo not shown) [Compound 152]
100 to 500 | CN1CCc2sc(C(=O)Nc3nc(-c4ccc(F)cc4)ccc3N)nc2C1 [Compound 153]
100 to 500 | CN(C)Cc1cnc2c(c1)CN(C(=O)Nc1nc(-c3ccc(F)cc3)ccc1N)C2 [Compound 154]
100 to 500 | Nc1ccc(-c2ccc(F)cc2)nc1NC(=O)N1Cc2cc(CN3CCCC3)cnc2C1 [Compound 155]
100 to 500 | Nc1ccc(-c2cccs2)nc1NC(=O)N1Cc2nccnc2C1 [Compound 156]
100 to 500 | Nc1ccc(-c2ccc(F)cc2)nc1NC(=O)N1Cc2cc(N3CCC3)cnc2C1 [Compound 157]
100 to 500 | Nc1ccc(-c2ccc(F)cc2)nc1NC(=O)N1Cc2cc(N3CCOCC3)cnc2C1 [Compound 158]
100 to 500 | CN1CCN(c2cnc3c(c2)CN(C(=O)Nc2nc(-c4ccc(F)cc4)ccc2N)C3)CC1 [Compound 159]
100 to 500 | CN1CCN(c2cc3c(cn2)CN(C(=O)Nc2nc(-c4ccc(F)cc4)ccc2N)C3)CC1 [Compound 160]
100 to 500 | CN(C)Cc1cnc2c(c1)CN(C(=O)Nc1nc(-c3cccnc3)ccc1N)C2 [Compound 161]
100 to 500 | CN(C)Cc1cc2c(cn1)CN(C(=O)Nc1nc(-c3ccc(F)cc3)ccc1N)C2 [Compound 162]
100 to 500 | CN1CCc2sc(C(=O)Nc3nc(-c4ccco4)ccc3N)nc2C1 [Compound 163]
500 to 5000 | Nc1ccc(-c2cccnc2)nc1NC(=O)c1nc2c(s1)CCN(CCF)C2 [Compound 164]
100 to 500 | Nc1ccc(-c2ccc(F)cc2)nc1NC(=O)c1nc2c(s1)CCN(CCF)C2 [Compound 165]

IC50 [nM] | Structure (SMILES)
500 to 5000 | CN(C)CCN1CC2CN(C(=O)Nc3nc(-c4ccc(F)cc4)ccc3N)CC2C1 (stereo not shown) [Compound 166]
> 5000 | Nc1ccc(-n2cccn2)nc1NC(=O)N1CC2CN(CCF)CC2C1 (stereo not shown) [Compound 167]
100 to 500 | CN1CCN(Cc2cnc3c(c2)CN(C(=O)Nc2nc(-c4ccc(F)cc4)ccc2N)C3)CC1 [Compound 168]
500 to 5000 | CN1CCC(N2CC3CN(C(=O)Nc4nc(-c5ccc(F)cc5)ccc4N)CC3C2)CC1 (stereo not shown) [Compound 169]
500 to 5000 | Cc1ccc(C2CN(C(=O)Nc3nc(-c4ccc(F)cc4)ccc3N)C2)cc1 [Compound 170]
> 5000 | Nc1ccc(-c2cccnc2)nc1NC(=O)N1CCC2(CCCNC2)C1 (stereo not shown) [Compound 171]
500 to 5000 | Nc1ccc(-c2ccc(F)cc2)nc1NC(=O)N1CC2CC(NC3COC3)CC2C1 (stereo not shown) [Compound 172]
500 to 5000 | COc1ccc(-c2ccc(N)c(NC(=O)N3Cc4ccncc4C3)n2)cc1 [Compound 173]
> 5000 | Nc1ccc(-c2ccco2)nc1NC(=O)N1CC2CN(CCF)CC2C1 (stereo not shown) [Compound 174]
> 5000 | Nc1ccc(-c2ccco2)nc1NC(=O)N1CC2CN(Cc3ccccc3F)CC2C1 (stereo not shown) [Compound 175]
500 to 5000 | Nc1ccc(-c2ccc(F)cc2)nc1NC(=O)N1CC2CN(Cc3ccccc3F)CC2C1 (stereo not shown) [Compound 176]
> 5000 | Nc1ccc(-n2cccn2)nc1NC(=O)N1CC2CN(Cc3ccccc3F)CC2C1 (stereo not shown) [Compound 177]
> 5000 | CN1CCN(Cc2cccc3c2CN(C(=O)Nc2nc(-c4ccc(F)cc4)ccc2N)C3)CC1 [Compound 178]
500 to 5000 | CN1CCN(C2CC3CN(C(=O)Nc4nc(-c5ccc(F)cc5)ccc4N)CC3C2)CC1 (stereo not shown) [Compound 179]
> 5000 | Nc1ccc(-c2ccc(F)cc2)nc1NC(=O)N1CC2CC(N3CCOCC3)CC2C1 (stereo not shown) [Compound 181]
> 5000 | Nc1ccc(-c2ccco2)nc1NC(=O)N1CC2CN(C3COC3)CC2C1 (stereo not shown) [Compound 182]
> 5000 | Nc1ccc(-c2ccc(F)cc2)nc1NC(=O)N1CC2CN(CCF)CC2C1 (stereo not shown) [Compound 183]
500 to 5000 | Nc1ccc(-n2cccn2)nc1NC(=O)N1Cc2cc(F)cnc2C1 [Compound 185]
500 to 5000 | Nc1ccc(-c2ccc(F)cc2)nc1NC(=O)N1Cc2cc(F)cnc2C1 [Compound 186]
500 to 5000 | COc1ccc(-c2ccc(N)c(NC(=O)N3Cc4cc(F)cnc4C3)n2)cc1 [Compound 187]
500 to 5000 | Nc1ccc(-c2ccc(F)cc2)nc1NC(=O)N1CC2CC(N3CC(F)C3)CC2C1 (stereo not shown) [Compound 188]
> 5000 | Nc1ccc(-c2ccco2)nc1NC(=O)N1CC2CC(N3CC(F)C3)CC2C1 (stereo not shown) [Compound 189]
> 5000 | Nc1ccc(-n2cccn2)nc1NC(=O)N1CC2CC(N3CC(F)C3)CC2C1 (stereo not shown) [Compound 190]
500 to 5000 | Nc1ccc(-c2ccccc2)nc1NC(=O)N1CC2CC(NC3COC3)CC2C1 (stereo not shown) [Compound 191]
> 5000 | Nc1ccc(-c2ccc(F)cc2)nc1NC(=O)C1CN(c2ccccn2)C1 [Compound 192]
> 5000 | Nc1ccc(-c2ccco2)nc1NC(=O)C1CN(c2ccccn2)C1 [Compound 193]

IC50 [nM] | Structure (SMILES)
> 5000 | Nc1ccc(-c2ccccc2)nc1NC(=O)CN1CCn2cncc2C1 [Compound 194]
> 5000 | Nc1ccc(-c2ccccc2)nc1NC(=O)C1CN(c2ccccn2)C1 [Compound 195]
> 5000 | CC(=O)N1CCN(CC(=O)Nc2nc(-c3ccccc3)ccc2N)CC1 [Compound 196]
> 5000 | Nc1ccc(-c2ccccc2)nc1NC(=O)N1CCn2ccnc2C1 [Compound 197]
> 5000 | Nc1ccc(-c2ccco2)nc1NC(=O)C1CN(Cc2ccccc2)C1 [Compound 198]
> 5000 | Nc1ccc(-c2ccccc2)nc1NC(=O)N1CC2CN(C3COC3)CC2C1 (stereo not shown) [Compound 199]
> 5000 | CN1CC2CN(C(=O)Nc3nc(-c4ccc(F)cc4)ccc3N)CC2C1 (stereo not shown) [Compound 201]
> 5000 | Nc1ccc(-c2ccc(F)cc2)nc1NC(=O)N1CC2CN(C3COC3)CC2C1 (stereo not shown) [Compound 203]
> 5000 | CN1CC(C(=O)Nc2nc(-c3ccc(F)cc3)ccc2N)C1 [Compound 204]
> 5000 | Nc1ccc(-n2cccn2)nc1NC(=O)C1CN(Cc2ccccc2)C1 [Compound 205]
500 to 5000 | CN1CCn2cc(C(=O)Nc3nc(-c4ccccc4)ccc3N)nc2C1 [Compound 206]
500 to 5000 | Nc1ccc(-c2ccccc2)nc1NC(=O)c1cn2c(n1)CNCC2 [Compound 208]
> 5000 | CN1CCC2(CC1)CCN(C(=O)Nc1nc(-c3cccnc3)ccc1N)C2 [Compound 210]
> 5000 | CN1CCCC2(CCN(C(=O)Nc3nc(-c4cccnc4)ccc3N)C2)C1 (stereo not shown) [Compound 211]
> 5000 | Nc1ccc(-c2ccccc2)nc1NC(=O)N1CCn2cncc2C1 [Compound 212]
500 to 5000 | Nc1ccc(-c2cccnc2)nc1NC(=O)N1Cc2nccnc2C1 [Compound 214]
> 5000 | Cn1cc(CN2CCC3(CC2)CCN(C(=O)Nc2nc(-c4cccnc4)ccc2N)C3)cn1 [Compound 215]
> 5000 | Nc1ccc(-c2cccnc2)nc1NC(=O)N1Cc2cc(F)cnc2C1 [Compound 218]
> 5000 | Nc1ccc(-c2cccnc2)nc1NC(=O)c1cn2c(n1)CNCC2 [Compound 219]
> 5000 | Nc1ccc(-c2cccnc2)nc1NC(=O)N1CC2(CCNCC2)C1 [Compound 220]
> 5000 | Nc1ccc(-c2cccnc2)nc1NC(=O)N1CCCC1 [Compound 221]
> 5000 | COc1cccc(CN2CCCC3(CCN(C(=O)Nc4nc(-c5ccc(F)cc5)ccc4N)C3)C2)c1 (stereo not shown) [Compound 222]
> 5000 | Cn1cc(CN2CCCC3(CCC(C(=O)Nc4nc(-c5ccc(F)cc5)ccc4N)C3)C2)cn1 (stereo not shown) [Compound 223]
> 5000 | Nc1ccc(-c2ccc(F)cc2)nc1NC(=O)N1CCN2CCCC2C1 (stereo not shown) [Compound 224]
500 to 5000 | Nc1ccc(-c2ccc(F)cc2)nc1NC(=O)N1CCN(C(=O)C2C[C@H]2c2ccccc2)CC1 (stereo partly shown) [Compound 225]
100 to 500 | Cc1cnc(C(=O)Nc2nc(-c3ccc(F)cc3)ccc2N)s1 [Compound 226]

Structure (SMILES) | IC50 [nM]
CN1CC2CN(C(=O)Nc3nc(-n4cccn4)ccc3N)CC2C1 (stereo not shown) [Compound 184] | > 5000
